Key:
HIV = settings: relative to 3TC; cited from earlier work
HBV in Hep G2.2.15 cells = settings: cited from earlier work
[1] = Stability in human intestinal S9 fraction (HIS9); assay type: in vitro ADME; settings: human intestinal S9 0.4 mg protein/mL, 5 μM test compound, 37° C.
Protocol: (§1) Stability in Human Intestinal S9 Fraction (HIS9) and in Human Liver S9 Fraction (HLS9),
(§2) Stock solutions of each test compound (10 mM) were prepared in DMSO and stored at −20° C. Prior to the start of the experiment, the test compounds were diluted to 500 μM in 50% acetonitrile in water. The reaction mixture was prepared in a total volume of 250 μL containing 5 mM MgC2, 1 mM NADPH and 5 μM test compound in 50 mM potassium phosphate buffer (pH 7.4). The reaction was initiated by addition of human liver or intestinal S9 fraction with a final concentration of 0.4 mg protein/mL (Xeno Tech). The reaction mixture was incubated on an orbital shaker at 37° C. At the desired time points (0, 10, 30 and 60 minutes) aliquots of 50 μL were taken and the reaction was stopped by mixing with 150 μL acetonitrile containing internal standard. Standard solutions of each test compound were prepared from the 500 μM solution by diluting the solution to a final concentration of 5 μM in boiled human S9 (0.4 mg protein/mL), 5 mM MgCl2 and 50 mM potassium phosphate buffer (pH 7.4). The standards and samples were kept on ice for 30 min then centrifuged at 3 000 g for 20 minutes at 10° C., there after 10 μL of supernatant was mixed with 200 μL 50% acetonitrile in water. 0.5 μM of each test compound in 50% acetonitrile in water was injected into the LC/MS-MS to determine the daughter ion, declustring potential (DP), collision energy (CE) and collision cell exit potential (CXP) in order to develop a LC/MS-MS method. The compounds were separated using a C18 column with a QTRAP5500 system. The mobile phase consisted of solvent A (98% water, 2% acetonitrile, 0.1% acetic acid or 10 mM ammonium acetate) and solvent B (80% acetonitrile, 20% water, 0.1% acetic acid or 10 mM ammonium acetate). Elution of the compounds was performed by using a gradient of solvent B from 0% to 100%. 5 μL of standard points and samples were injected for analysis with QTRAP5500.
(§3) The amount of parent compound was determined on the basis of the peak area for each time point compared to standard which was set to 5 μM. Intrinsic clearance (CLint) and half-life (t1/2) were determined from the disappearance curves of the test compound using Excel software.

[2] = Cell cytotoxicity assay, HEP3B; assay type: cell-based; settings: human, HEP3B cells
Protocol: (§4) Cells were seeded 24 hours prior to compound addition. Each test compound (serially diluted from 100 μM) was added to Huh7 (1.5×10^4 cells/well) or HepG2 (1.5×10^4 cells/well), and allowed to incubate for 5 days at 37° C. A medium only control was used to determine the minimum absorbance value and an untreated cell value. At the end of the growth period, XTT dye from Polysciences Europe GmbH was added to each well. The absorbance at 450 nm with a reference wavelength of 600 nm was read with a Sunrise (Tecan) using the medium only control wells as blanks. The 50% inhibition value (CC50) was determined by comparing the degree of inhibition (compared to cell control) plotted against compound concentration. Results from the dilution series were fitted to a sigmoidal dose-response curve.
(§5) Compounds of the invention were evaluated in these assays to assess the stability in human intestinal S9 fraction (HIS9) and human liver S9 fraction (HLS9), and for Cell Cytotoxicity in HUH7, HEP3B and HEPG2 cells.

[3] = Cell cytotoxicity assay, HUH7; assay type: cell-based; settings: human; Huh7 cells, 5 days at 37° C., XTT dye
Protocol: as §4, §5

[4] = Stability in human liver S9 fraction (HLS9); assay type: in vitro ADME; settings: liver S9 fraction, pH 7.4; human liver S9 0.4 mg protein/mL, 5 μM test compound, 37° C.
Protocol: as §1, §2, §3

[5] = Cell cytotoxicity assay, HEPG2; assay type: cell-based; settings: human; HepG2 cells, 5 days at 37° C., XTT dye
Protocol: as §4, §5

| SMILES | fold less active against HIV than parent nucleoside 3TC (HIV) [fold] | effectiveness against HBV compared with parent nucleoside 3TC (HBV in Hep G2.2.15 cells) | microsomal CLint at 5 μM ([1]; intestinal S9 fraction, pH 7.4) [µL/min/mg] | CC50 at 5 days [2] [nM] | CC50 at 5 days [3] [nM] | microsomal CLint at 5 μM [4] [µL/min/mg] | CLint Intestinal S9 [1] [µL/min/mg] | CC50 at 5 days [5] [nM] |
| --- | --- | --- | --- | --- | --- | --- | --- | --- |
| COC(=O)C(C)NP(=O)(OC[C@@H]1O[C@H](n2ccc(N)nc2=O)CS1)Oc1ccccc1 (some centres unmarked) [CF 1109] | ~250 | virtually equally effective |  |  |  |  |  |  |
| CCC[C@H](C)OC(=O)[C@H](C)NP(=O)(OC[C@H]1OC[C@@H](n2cc(F)c(N)nc2=O)O1)Oc1cccc(C2CC2)c1 (single isomer, unassigned) [29 dia-2] |  |  | 18 | 75 | 495 | 36 |  |  |
| COC(=O)[C@H](C)NP(=O)(OC[C@H]1OC[C@@H](n2ccc(N)nc2=O)O1)Oc1ccc(C2CC2)cc1 (single isomer, unassigned) [34 dia-2] |  |  |  | 210 | 524 | 64 | 6 | 236 |
| COC(=O)[C@H](C)NP(=O)(OC[C@H]1OC[C@@H](n2ccc(N)nc2=O)O1)Oc1ccc(Br)cc1 (single isomer, unassigned) [27 dia-2] |  |  |  | 348 | 1020 | 57 | 6 | 223 |
| CC(C)OC(=O)[C@H](C)NP(=O)(OC[C@H]1OC[C@@H](n2ccc(N)nc2=O)O1)Oc1ccccc1 (single isomer, unassigned) [Example 3] |  |  |  |  | 3280 | 8 | 6 | 371 |
| Nc1ccn([C@@H]2CO[C@H](CO)O2)c(=O)n1 [Troxacitabine, 4-amino-1-((2S,4S)-2-(hydroxymethyl)-1,3-dioxolan-4-yl)pyrimidin-2(1H)-one, reference compound] |  |  |  | 279 | 646 |  |  | 218 |
